{"source": "patent US20230194511A1", "about": "“Compound Fixing Method, Detection Method, Screening Method, Substrate Used in Same, Compound Fixing Agent, and Fixing Kit” (priority 2020, published 2023)", "key": {"[1]": {"system": "anti-prostaglandin E2 antibody", "assay": "Prostaglandin-HSA compound microarray, detection with anti-prostaglandin E2 antibody (Example 5)", "type": "binding", "conditions": "prostaglandin mixed with HSA 0.1 milligram/milliliter, printed on glass slide", "method": "The immobilization of prostaglandins, which are bioactive lipids, was verified. In this example, as the prostaglandins, prostaglandins A1, A2, A3, B1, B2, B3, D1, D2, D3, E1, E2, E3, F1a, F2a, F3a, G2, H1, H2, I2, I3, J2, K1, and K2 were used. The prostaglandins were mixed with HSA in the solvents and at the final concentrations shown in the table below to form prostaglandin and HSA complexes. It should be noted that HSA was added to achieve a final concentration of 0.1 milligram/milliliter.\nSolutions including each prepared prostaglandin and HSA were spotted and printed on glass slides as microdroplets of approximately 2 to 4 nl by using an ultratrace dispensing system (Micro Diagnostic).\n(§1) The compound microarrays printed with the prostaglandins were immersed in ethanol and shaken for 30 seconds at room temperature. Subsequently, the compound microarrays were immersed in ultrapure water and shaken for 30 seconds at 26° C. The shaking by ultrapure water was performed twice. For solution replacement, the compound microarrays were immersed in solution A for protein microarrays only (Fukushima Protein Factory, Fukushima, Japan) and shaken for about five minutes at 26° C.\n(§2) The compound microarrays treated as described above were immersed in Blocking One (Nacalai Tesque, Kyoto, Japan) and shaken for one hour at 26° C. Subsequently, the compound microarrays were immersed in solution A for protein microarrays only and shaken for about five minutes at 26° C.\n(§3) Using a solution obtained by adding 1/4000 volume of Goat Reference Antibody Mixture I (Fukushima Protein Factory) to the primary antibody diluent for protein microarrays only (Fukushima Protein Factory), an anti-prostaglandin E2 antibody (Ab00484-23.0, Absolute Antibody) was diluted to 1 microgram/milliliter.\n(§4) Two milliliters of the solution with the diluted primary antibody were added to a P-DE1 cassette for protein microarrays (Fukushima Protein Factory). […]"}, "[2]": {"system": "anti-amoxicillin antibodies", "assay": "Compound microarray, detection of immobilized compound with anti-amoxicillin antibodies", "type": "binding, mouse", "conditions": "concentrations of HSA from 0.5 mM to 0.0005 mM, glass slide", "method": "(§5) Further, compounds of bovine serum albumin (BSA) covalently bonded to these 14 compounds in advance (Imgen BioSciences) were printed on glass slides as control samples for comparison. The compounds mixed with HSA were each dissolved in solution A for protein microarrays only (Fukushima Protein Factory) to a concentration of 0.5 mM. Furthermore, HSA was prepared and mixed with the solutions A including the compounds, bringing the final concentrations to 0.1 micrograms/microliter. It should be noted that the printing of each compound on a glass slide was performed by spotting microdroplets of approximately 2 to 4 nl on the glass slide by using an ultratrace dispensing system (Micro Diagnostic).\nas §1, with “the compounds” for “the prostaglandins”, “C. It should be noted that the” for “C. The”\nas §2\nas §3, with “one of eight mouse monoclonal anti-compound antibodies (Table 2)” for “an anti-prostaglandin E2 antibody (Ab00484-23.0, Absolute Antibody)”\nas §4"}, "[3]": {"system": "anti-ampicillin antibodies", "assay": "Compound microarray, detection of immobilized compound with anti-ampicillin antibodies", "type": "binding, mouse", "conditions": "compound 0.5 mM mixed with HSA 0.1 micrograms/microliter, printed on glass slide", "source_text": "as §5, with “Fourteen compounds (amoxicillin, ampicillin, apramycin, bacitracin, cefalexin, ceftazidime, cloxacillin, gentamicin, hygromycin B, neomycin, penicillin G, streptomycin, sulfadimidine, and tetracycline) were each mixed with human serum albumin (HSA) (Sigma-Aldrich) and printed on glass slides. Further,” for “Further,”\n(§6) The compound microarrays printed with the compounds were immersed in ethanol and shaken for 30 seconds at room temperature. Subsequently, the compound microarrays were immersed in ultrapure water and shaken for 30 seconds at 26° C. […]\n(§7) The compound microarrays were dried, centrifuged at 1500 rpm for one minute, and scanned for fluorescence intensity using a GenePix 4000B (Molecular Devices, Calif., USA). […]"}, "[4]": {"system": "anti-penicillin antibodies", "assay": "Compound microarray, detection with anti-penicillin antibodies (Examples 3 and 4, clone not stated)", "type": "binding", "conditions": "concentrations of HSA from 0.5 mM to 0.0005 mM, glass slide"}, "[5]": {"system": "anti-penicillin [P2B9] antibodies", "assay": "Compound microarray, detection of immobilized compound with anti-penicillin [P2B9] antibodies", "type": "binding, mouse", "conditions": "compound mixed with HSA, printed on glass slide", "source_text": "as §5, with “Fourteen compounds (amoxicillin, ampicillin, apramycin, bacitracin, cefalexin, ceftazidime, cloxacillin, gentamicin, hygromycin B, neomycin, penicillin G, streptomycin, sulfadimidine, and tetracycline) were each mixed with human serum albumin (HSA) (Sigma-Aldrich) and printed on glass slides. Further,” for “Further,”\nas §6, §7"}, "[6]": {"system": "anti-streptomycin antibodies", "assay": "Compound microarray, detection of immobilized compound with anti-streptomycin antibodies", "type": "binding, mouse", "conditions": "compound mixed with HSA, printed on glass slide", "source_text": "as §5, with “Fourteen compounds (amoxicillin, ampicillin, apramycin, bacitracin, cefalexin, ceftazidime, cloxacillin, gentamicin, hygromycin B, neomycin, penicillin G, streptomycin, sulfadimidine, and tetracycline) were each mixed with human serum albumin (HSA) (Sigma-Aldrich) and printed on glass slides. Further,” for “Further,”\nas §6, §7"}, "[7]": {"system": "anti-dihydrosterptomycin [1.BB.891]", "assay": "Compound microarray, detection of immobilized compound with anti-dihydrostreptomycin antibody [1.BB.891]", "type": "binding, mouse", "conditions": "compound mixed with HSA, printed on glass slide", "source_text": "as §5, with “Fourteen compounds (amoxicillin, ampicillin, apramycin, bacitracin, cefalexin, ceftazidime, cloxacillin, gentamicin, hygromycin B, neomycin, penicillin G, streptomycin, sulfadimidine, and tetracycline) were each mixed with human serum albumin (HSA) (Sigma-Aldrich) and printed on glass slides. Further,” for “Further,”\nas §6, §7"}, "[8]": {"system": "streptomycin/dihydrostreptomycin [CH-2013]", "assay": "Compound microarray, detection of immobilized compound with streptomycin/dihydrostreptomycin antibody [CH-2013]", "type": "binding, mouse", "conditions": "compound mixed with HSA, printed on glass slide", "source_text": "as §5, with “Fourteen compounds (amoxicillin, ampicillin, apramycin, bacitracin, cefalexin, ceftazidime, cloxacillin, gentamicin, hygromycin B, neomycin, penicillin G, streptomycin, sulfadimidine, and tetracycline) were each mixed with human serum albumin (HSA) (Sigma-Aldrich) and printed on glass slides. Further,” for “Further,”\nas §6, §7"}, "[9]": {"system": "anti-gentamycin antibodies", "assay": "Compound microarray, detection of immobilized compound with anti-gentamycin antibodies", "type": "binding, mouse", "method": "as §5\nas §1, with “the compounds” for “the prostaglandins”, “C. It should be noted that the” for “C. The”\nThe compound microarrays treated as described above were immersed in Blocking One (Nacalai Tesque, Kyoto, Japan) and shaken for one hour at 26° C. […]"}}}
{"compound": "CCCCC[C@H](O)/C=C/[C@H]1[C@H](O)CC(=O)[C@@H]1C/C=C\\CCCC(=O)O", "note": "[Prostaglandin E2]", "values": [{"measurement": "reaction of the anti-prostaglandin E2 antibody (fluorescence intensity)", "setting": "[1]", "value": "reacted strongly"}]}
{"compound": "CC/C=C\\C[C@H](O)/C=C/[C@H]1[C@H](O)CC(=O)[C@@H]1C/C=C\\CCCC(=O)O", "note": "[Prostaglandin E3]", "values": [{"measurement": "reaction of the anti-prostaglandin E2 antibody (fluorescence intensity)", "setting": "[1]", "value": "reacted strongly"}]}
{"compound": "CCCCC[C@H](O)/C=C/[C@@H]1[C@H]2C/C(=C/CCCC(=O)O)O[C@H]2C[C@H]1O", "note": "[Prostaglandin I2]", "values": [{"measurement": "reaction of the anti-prostaglandin E2 antibody (fluorescence intensity)", "setting": "[1]", "value": "reacted strongly"}]}
{"compound": "CC1(C)S[C@@H]2[C@H](NC(=O)[C@H](N)c3ccc(O)cc3)C(=O)N2[C@H]1C(=O)[O-].[Na+]", "note": "[amoxicillin sodium]", "values": [{"measurement": "concentration of HSA at which the strongest signal was detected", "setting": "[2]", "value": 0.05, "unit": "mM"}, {"measurement": "signal intensity versus HSA concentration", "setting": "[2]", "value": "tended to be concentration-dependent"}]}
{"compound": "CC1(C)S[C@@H]2[C@H](NC(=O)[C@H](N)c3ccc(O)cc3)C(=O)N2[C@H]1C(=O)O", "note": "[amoxicillin]", "values": [{"measurement": "signal intensity versus HSA concentration", "setting": "[2]", "value": "increased in an HSA concentration-dependence"}]}
{"compound": "CC1(C)S[C@@H]2[C@H](NC(=O)[C@H](N)c3ccccc3)C(=O)N2[C@H]1C(=O)O", "note": "[ampicillin]", "values": [{"measurement": "signal (Red Intensity)", "setting": "[3]", "value": "strong signal (strong signals (red intensity of 2000 or greater; the same below))"}]}
{"compound": "CC1(C)S[C@@H]2[C@H](NC(=O)Cc3ccccc3)C(=O)N2[C@H]1C(=O)[O-].[Na+]", "note": "[penicillin G sodium]", "values": [{"measurement": "signal intensity versus HSA concentration", "setting": "[4]", "value": "increased in an HSA concentration-dependence"}]}
{"compound": "CC1(C)S[C@@H]2[C@H](NC(=O)Cc3ccccc3)C(=O)N2[C@H]1C(=O)O", "note": "[penicillin G]", "values": [{"measurement": "signal (Red Intensity)", "setting": "[5]", "value": "weak signal"}]}
{"compound": "[H]/N=C(/N)N[C@H]1[C@H](O)[C@@H](O)[C@H](O[C@@H]2O[C@@H](C)[C@](O)(C=O)[C@H]2O[C@@H]2O[C@@H](CO)[C@H](O)[C@@H](O)[C@@H]2NC)[C@@H](N/C(N)=N\\[H])[C@@H]1O", "note": "[streptomycin]", "values": [{"measurement": "signal (Red Intensity)", "setting": "[6]", "value": "weak signal"}, {"measurement": "signal (Red Intensity)", "setting": "[7]", "value": "weak signal"}, {"measurement": "signal (Red Intensity)", "setting": "[8]", "value": "weak signal"}]}
{"compound": "gentamycin sulfate", "values": [{"measurement": "signal (red intensity)", "setting": "[9]; compound 0.5 mM mixed with each immobilizing protein or HSA (0.1 micrograms/microliter), strong only with this antibody", "value": "strong signal (strong signals (red intensity of 2000 or greater; the same below))"}, {"measurement": "signal intensity versus HSA concentration", "setting": "[9]; concentrations of HSA from 0.5 mM to 0.0005 mM, glass slide", "value": "increased in an HSA concentration-dependence"}]}
